Tests used:
Type in all cases: in vivo
[1] = tested on: barnyardgrass (Echinochloa crus-galli); assay: Test B flooded paddy test, barnyardgrass; conditions: 500 g ai/ha; applied to paddy water at 2-leaf stage; 13 to 15 d; scale 0 no effect to 100 complete control
Procedure: (§1) Plant species in the flooded paddy test selected from rice (Oryza sativa), sedge, umbrella (small-flower umbrella sedge, Cyperus difformis), ducksalad (Heteranthera limosa), and barnyardgrass (Echinochloa crus-galli) were grown to the 2-leaf stage for testing. At time of treatment, test pots were flooded to 3 cm above the soil surface, treated by application of test compounds directly to the paddy water, and then maintained at that water depth for the duration of the test. Treated plants and controls were maintained in a greenhouse for 13 to 15 d, after which time all species were compared to controls and visually evaluated. Plant response ratings, summarized in Table B, are based on a scale of 0 to 100 where 0 is no effect and 100 is complete control. A dash (-) response means no test result.

[2] = tested on: ducksalad (Heteranthera limosa); assay: Test B flooded paddy test, ducksalad; conditions: 500 g ai/ha; applied to paddy water at 2-leaf stage; 13 to 15 d; scale 0 no effect to 100 complete control
Procedure: as §1

[3] = tested on: rice (Oryza sativa); assay: Test B flooded paddy test, rice; conditions: 500 g ai/ha; applied to paddy water at 2-leaf stage; 13 to 15 d; scale 0 no effect to 100 complete control
Procedure: as §1

[4] = tested on: sedge, umbrella (small-flower umbrella sedge, Cyperus difformis); assay: Test B flooded paddy test, umbrella sedge; conditions: 500 g ai/ha; applied to paddy water at 2-leaf stage; 13 to 15 d; scale 0 no effect to 100 complete control
Procedure: as §1

[5] = tested on: barnyardgrass (Echinochloa crus-galli); assay: Test A preemergence, barnyardgrass; conditions: visual rating after approx. 10 d, 0 to 100 scale, 0 no effect, 100 complete control
From the text: (§2) Seeds of plant species selected from barnyardgrass (Echinochloa crus-galli), crabgrass (large crabgrass, Digitaria sanguinalis), kochia (Kochia scoparia), ragweed (common ragweed, Ambrosia elatior), morningglory (Ipomoea spp.), velvetleaf (Abutilon theophrasti), ryegrass, Italian (Italian ryegrass, Lolium multiflorum), foxtail, giant (giant foxtail, Setaria faberii), wheat (Triticum aestivum), corn (Zea mays), and pigweed (Amaranthus retroflexus), were planted into a blend of loam soil and sand and treated preemergence with a directed soil spray using test chemicals formulated in a non-phytotoxic solvent mixture which included a surfactant. At the same time, plants selected from these crop and weed species and also blackgrass (Alopecurus myosuroides), and galium (catchweed bedstraw, Galium aparine), were planted in pots containing the same blend of loam soil and sand and treated with postemergence applications of test chemicals formulated in the same manner. Plants ranged in height from 2 to 10 cm and were in the one- to two-leaf stage for the postemergence treatment. Treated plants and untreated controls were maintained in a greenhouse for approximately 10 d, after which time all treated plants were compared to untreated controls and visually evaluated for injury. Plant response ratings, summarized in Table A, are based on a 0 to 100 scale where 0 is no effect and 100 is complete control. A dash (-) response means no test result.

[6] = tested on: kochia (Kochia scoparia); assay: Test A preemergence, kochia; conditions: visual rating after approx. 10 d, 0 to 100 scale, 0 no effect, 100 complete control
From the text: as §2

[7] = tested on: ragweed (common ragweed, Ambrosia elatior); assay: Test A preemergence, ragweed; conditions: visual rating after approx. 10 d, 0 to 100 scale, 0 no effect, 100 complete control
From the text: as §2

[8] = tested on: ryegrass, Italian (Italian ryegrass, Lolium multiflorum); assay: Test A preemergence, Italian ryegrass; conditions: visual rating after approx. 10 d, 0 to 100 scale, 0 no effect, 100 complete control
From the text: as §2

[9] = tested on: foxtail, giant (giant foxtail, Setaria faberii); assay: Test A preemergence, giant foxtail; conditions: visual rating after approx. 10 d, 0 to 100 scale, 0 no effect, 100 complete control
From the text: as §2

[10] = tested on: pigweed (Amaranthus retroflexus); assay: Test A preemergence, pigweed; conditions: visual rating after approx. 10 d, 0 to 100 scale, 0 no effect, 100 complete control
From the text: as §2

[11] = tested on: barnyardgrass (Echinochloa crus-galli); assay: Test A postemergence, barnyardgrass; conditions: visual rating after approx. 10 d, 0 to 100 scale, 0 no effect, 100 complete control
From the text: as §2

[12] = tested on: kochia (Kochia scoparia); assay: Test A postemergence, kochia; conditions: visual rating after approx. 10 d, 0 to 100 scale, 0 no effect, 100 complete control
From the text: as §2

[13] = tested on: ragweed (common ragweed, Ambrosia elatior); assay: Test A postemergence, ragweed; conditions: visual rating after approx. 10 d, 0 to 100 scale, 0 no effect, 100 complete control
From the text: as §2

[14] = tested on: ryegrass, Italian (Italian ryegrass, Lolium multiflorum); assay: Test A postemergence, Italian ryegrass; conditions: visual rating after approx. 10 d, 0 to 100 scale, 0 no effect, 100 complete control
From the text: as §2

[15] = tested on: foxtail, giant (giant foxtail, Setaria faberii); assay: Test A postemergence, giant foxtail; conditions: visual rating after approx. 10 d, 0 to 100 scale, 0 no effect, 100 complete control
From the text: as §2

[16] = tested on: wheat (Triticum aestivum); assay: Test A postemergence, wheat; conditions: visual rating after approx. 10 d, 0 to 100 scale, 0 no effect, 100 complete control
From the text: as §2

[17] = tested on: corn (Zea mays); assay: Test A postemergence, corn; conditions: visual rating after approx. 10 d, 0 to 100 scale, 0 no effect, 100 complete control
From the text: as §2

[18] = tested on: pigweed (Amaranthus retroflexus); assay: Test A postemergence, pigweed; conditions: visual rating after approx. 10 d, 0 to 100 scale, 0 no effect, 100 complete control
From the text: as §2

[19] = tested on: blackgrass (Alopecurus myosuroides); assay: Test A postemergence, blackgrass; conditions: visual rating after approx. 10 d, 0 to 100 scale, 0 no effect, 100 complete control
From the text: as §2

[20] = tested on: galium (catchweed bedstraw, Galium aparine); assay: Test A postemergence, galium; conditions: visual rating after approx. 10 d, 0 to 100 scale, 0 no effect, 100 complete control
From the text: as §2

Row | Structure (SMILES) | Plant response rating, Flood, Barnyardgrass [1] | Plant response rating, Flood, Ducksalad [2] | Plant response rating, Flood, Rice [3] | Plant response rating, Flood, Sedge, Umbrella [4] | Plant response rating, Barnyardgrass ([5]; 125 g ai/ha) | Plant response rating, Barnyardgrass ([5]; 500 g ai/ha) | Plant response rating, Kochia ([6]; 125 g ai/ha) | Plant response rating, Kochia ([6]; 500 g ai/ha) | Plant response rating, Ragweed ([7]; 125 g ai/ha) | Plant response rating, Ragweed ([7]; 500 g ai/ha) | Plant response rating, Ryegrass, Italian ([8]; 125 g ai/ha) | Plant response rating, Ryegrass, Italian ([8]; 500 g ai/ha) | Plant response rating, Foxtail, Giant ([9]; 125 g ai/ha) | Plant response rating, Foxtail, Giant ([9]; 500 g ai/ha) | Plant response rating, Pigweed ([10]; 125 g ai/ha) | Plant response rating, Pigweed ([10]; 500 g ai/ha) | Plant response rating, Barnyardgrass ([11]; 125 g ai/ha) | Plant response rating, Barnyardgrass ([11]; 500 g ai/ha) | Plant response rating, Kochia ([12]; 125 g ai/ha) | Plant response rating, Kochia ([12]; 500 g ai/ha) | other results
1 | O=C(Nc1ccccc1F)C1C(=O)OCC1c1cccc(C(F)(F)F)c1 (racemic) [Compound 11] | 0 | 0 | 0 | 0 | 30 | 80 | 0 | 0 | 0 | 0 | 0 | 0 | 70 | 80 | 0 | 0 | 10 | 40 | 0 | 0 | Plant response rating, Ragweed ([13]; 125 g ai/ha): 0; Plant response rating, Ragweed ([13]; 500 g ai/ha): 0; Plant response rating, Ryegrass, Italian ([14]; 125 g ai/ha): 0; Plant response rating, Ryegrass, Italian ([14]; 500 g ai/ha): 0; Plant response rating, Foxtail, Giant ([15]; 125 g ai/ha): 20; Plant response rating, Foxtail, Giant ([15]; 500 g ai/ha): 60; Plant response rating, Wheat ([16]; 125 g ai/ha): 0; Plant response rating, Wheat ([16]; 500 g ai/ha): 20; Plant response rating, Corn ([17]; 125 g ai/ha): 0; Plant response rating, Corn ([17]; 500 g ai/ha): 0; Plant response rating, Pigweed ([18]; 125 g ai/ha): 0; Plant response rating, Pigweed ([18]; 500 g ai/ha): 0; Plant response rating, Blackgrass ([19]; 125 g ai/ha): 0; Plant response rating, Blackgrass ([19]; 500 g ai/ha): 0; Plant response rating, Galium ([20]; 125 g ai/ha): 0; Plant response rating, Galium ([20]; 500 g ai/ha): 0
2 | O=C(Nc1cccc(F)c1F)C1C(=O)OCC1c1cccc(C(F)(F)F)c1 (racemic) [Compound 12] | 0 | 0 | 0 | 0 | 20 | 30 | 0 | 20 | 0 | 0 | 0 | 20 | 30 | 60 | 0 | 0 | 40 | 40 | 0 | 0 | Plant response rating, Ragweed ([13]; 125 g ai/ha): 0; Plant response rating, Ragweed ([13]; 500 g ai/ha): 0; Plant response rating, Ryegrass, Italian ([14]; 125 g ai/ha): 0; Plant response rating, Ryegrass, Italian ([14]; 500 g ai/ha): 0; Plant response rating, Foxtail, Giant ([15]; 125 g ai/ha): 30; Plant response rating, Foxtail, Giant ([15]; 500 g ai/ha): 70; Plant response rating, Wheat ([16]; 125 g ai/ha): 0; Plant response rating, Wheat ([16]; 500 g ai/ha): 0; Plant response rating, Corn ([17]; 125 g ai/ha): 0; Plant response rating, Corn ([17]; 500 g ai/ha): 0; Plant response rating, Pigweed ([18]; 125 g ai/ha): 0; Plant response rating, Pigweed ([18]; 500 g ai/ha): 0; Plant response rating, Blackgrass ([19]; 125 g ai/ha): 0; Plant response rating, Blackgrass ([19]; 500 g ai/ha): 0; Plant response rating, Galium ([20]; 125 g ai/ha): 0; Plant response rating, Galium ([20]; 500 g ai/ha): 0
3 | O=C(Nc1cccc(F)c1C(F)(F)F)C1C(=O)OCC1c1cccc(C(F)(F)F)c1 (racemic) [Compound 13] | 0 | 0 | 0 | 0 | 0 | 0 | 0 | 0 | 0 | 0 | 0 | 0 | 40 | 70 | 0 | 0 | 0 | 0 | 0 | 0 | Plant response rating, Ragweed ([13]; 125 g ai/ha): 0; Plant response rating, Ragweed ([13]; 500 g ai/ha): 0; Plant response rating, Ryegrass, Italian ([14]; 125 g ai/ha): 0; Plant response rating, Ryegrass, Italian ([14]; 500 g ai/ha): 0; Plant response rating, Foxtail, Giant ([15]; 125 g ai/ha): 20; Plant response rating, Foxtail, Giant ([15]; 500 g ai/ha): 40; Plant response rating, Wheat ([16]; 125 g ai/ha): 0; Plant response rating, Wheat ([16]; 500 g ai/ha): 0; Plant response rating, Corn ([17]; 125 g ai/ha): 0; Plant response rating, Corn ([17]; 500 g ai/ha): 0; Plant response rating, Pigweed ([18]; 125 g ai/ha): 0; Plant response rating, Pigweed ([18]; 500 g ai/ha): 0; Plant response rating, Blackgrass ([19]; 125 g ai/ha): 0; Plant response rating, Blackgrass ([19]; 500 g ai/ha): 0; Plant response rating, Galium ([20]; 125 g ai/ha): 0; Plant response rating, Galium ([20]; 500 g ai/ha): 0
4 | O=C(Nc1ccccc1C(F)(F)F)C1C(=O)OCC1c1cccc(C(F)(F)F)c1 (racemic) [Compound 14] | 0 | 0 | 0 | 0 | 20 | 20 | 0 | 20 | 0 | 0 | 0 | 20 | 70 | 90 | 0 | 0 | 0 | 20 | 0 | 0 | Plant response rating, Ragweed ([13]; 125 g ai/ha): 0; Plant response rating, Ragweed ([13]; 500 g ai/ha): 0; Plant response rating, Ryegrass, Italian ([14]; 125 g ai/ha): 0; Plant response rating, Ryegrass, Italian ([14]; 500 g ai/ha): 0; Plant response rating, Foxtail, Giant ([15]; 125 g ai/ha): 20; Plant response rating, Foxtail, Giant ([15]; 500 g ai/ha): 70; Plant response rating, Wheat ([16]; 125 g ai/ha): 0; Plant response rating, Wheat ([16]; 500 g ai/ha): 0; Plant response rating, Corn ([17]; 125 g ai/ha): 0; Plant response rating, Corn ([17]; 500 g ai/ha): 0; Plant response rating, Pigweed ([18]; 125 g ai/ha): 0; Plant response rating, Pigweed ([18]; 500 g ai/ha): 0; Plant response rating, Blackgrass ([19]; 125 g ai/ha): 0; Plant response rating, Blackgrass ([19]; 500 g ai/ha): 30; Plant response rating, Galium ([20]; 125 g ai/ha): 0; Plant response rating, Galium ([20]; 500 g ai/ha): 30
5 | O=C(Nc1cccc(F)c1F)C1C(=O)OCC1c1ccc(F)c(C(F)(F)F)c1 (racemic) [Compound 15] | 0 | 0 | 0 | 0 | 40 | 70 | 0 | 0 | 0 | 0 | 0 | 40 | 70 | 90 | 0 | 0 | 30 | 70 | 0 | 0 | Plant response rating, Ragweed ([13]; 125 g ai/ha): 0; Plant response rating, Ragweed ([13]; 500 g ai/ha): 0; Plant response rating, Ryegrass, Italian ([14]; 125 g ai/ha): 0; Plant response rating, Ryegrass, Italian ([14]; 500 g ai/ha): 20; Plant response rating, Foxtail, Giant ([15]; 125 g ai/ha): 30; Plant response rating, Foxtail, Giant ([15]; 500 g ai/ha): 70; Plant response rating, Wheat ([16]; 125 g ai/ha): 0; Plant response rating, Wheat ([16]; 500 g ai/ha): 20; Plant response rating, Corn ([17]; 125 g ai/ha): 0; Plant response rating, Corn ([17]; 500 g ai/ha): 20; Plant response rating, Pigweed ([18]; 125 g ai/ha): 0; Plant response rating, Pigweed ([18]; 500 g ai/ha): 0; Plant response rating, Blackgrass ([19]; 125 g ai/ha): 0; Plant response rating, Blackgrass ([19]; 500 g ai/ha): 20; Plant response rating, Galium ([20]; 125 g ai/ha): 0; Plant response rating, Galium ([20]; 500 g ai/ha): 20

Reference: patent US10582709B2, “Butyrolactones as herbicides” (FMC Corporation, priority 2015, dated 2020)
